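Dose response: 5 concentrations. Exposure: 48 h. Format: 96-well plates. Endpoint: linear interpolation; highest concentration if not reached. The concentration for 50% growth inhibition is given as GI50.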 The source made the active and inactive calls. No stated cut-off is given here; in the data, active = GI50 up to about 1.1 µM and inactive = higher.
Tests used:
Test in all cases: inhibition of tumour cell growth, NCI panel, 48 h
[1] = tested on: OVCAR-8
[2] = tested on: K562
[3] = tested on: ACHN
[4] = tested on: HOP-92
[5] = tested on: A549
[6] = tested on: SK-MEL-28
[7] = tested on: SNB-75
[8] = tested on: MDA-MB-231
[9] = tested on: NCI/ADR-RES
[10] = tested on: DU-145
[11] = tested on: M14
[12] = tested on: 786-0
[13] = tested on: HOP-62
[14] = tested on: OVCAR-3
[15] = tested on: RPMI-8226
[16] = tested on: OVCAR-4
[17] = tested on: BT-549
[18] = tested on: NCI-H226
[19] = tested on: OVCAR-5
[20] = tested on: SK-MEL-2

For `CC(C)C1CNC(=O)C2(/C=N/C(C(C)C)CNC(=O)C3(/C=N/1)CCCO3)CCCO2` (stereo unspecified), the GI50 [1] was > 10 µM (inactive), the GI50 [2] was > 10 µM (inactive) and the GI50 [3] was > 10 µM (inactive). For the same molecule, the GI50 [4] was > 10 µM (inactive), the GI50 [5] was > 10 µM (inactive) and the GI50 [6] was > 10 µM (inactive). The GI50 [7] was > 10 µM (inactive), the GI50 [8] was > 10 µM (inactive) and the GI50 [9] was > 10 µM (inactive). The GI50 [10] was > 10 µM (inactive), the GI50 [11] was > 10 µM (inactive) and the GI50 [12] was > 10 µM (inactive). The GI50 [13] was > 10 µM (inactive), the GI50 [14] was > 10 µM (inactive) and the GI50 [15] was > 10 µM (inactive). For the same molecule, the GI50 [16] was > 10 µM (inactive) and the GI50 [17] was > 10 µM (inactive).

In the case of `COC(=O)c1c2c(cc3c1CC1(Cc4cc5c(cc4C1=O)CCC5)C3)CCC2` (stereo unspecified), the GI50 [1] is reported as 27.6 µM (inactive), the GI50 [2] is reported as 7.94 µM (inactive) and the GI50 [18] is reported as 60.3 µM (inactive). For the same molecule, the GI50 [3] was 86.1 µM (inactive), the GI50 [19] was > 100 µM (inactive) and the GI50 [20] was > 100 µM (inactive). For the same molecule, the GI50 [5] was 56.6 µM (inactive), the GI50 [6] was 63 µM (inactive) and the GI50 [7] was 14.3 µM (inactive). For the same molecule, the GI50 [8] was > 100 µM (inactive), the GI50 [10] was > 100 µM (inactive) and the GI50 [11] was 90.4 µM (inactive). The GI50 [12] was 35.4 µM (inactive), the GI50 [13] was 34.3 µM (inactive) and the GI50 [14] was 72.9 µM (inactive). For the same molecule, the GI50 [15] was 6.79 µM (inactive), the GI50 [16] was 34.3 µM (inactive) and the GI50 [17] was 64.6 µM (inactive).

In the case of `CCCCN1C(=O)CC2[C@@H]3CCc4cc(OC)ccc4C3CC[C@]2(C)C1=O` (stereo partly specified), the GI50 [1] is reported as > 10 µM (inactive), the GI50 [2] is reported as 7.93 µM (inactive) and the GI50 [18] is reported as > 10 µM (inactive). The GI50 [3] was > 10 µM (inactive), the GI50 [19] was > 10 µM (inactive) and the GI50 [20] was > 10 µM (inactive). The GI50 [5] was > 10 µM (inactive), the GI50 [6] was > 10 µM (inactive) and the GI50 [7] was 3.1 µM (inactive). For the same molecule, the GI50 [8] was > 10 µM (inactive), the GI50 [9] was > 10 µM (inactive) and the GI50 [10] was > 10 µM (inactive). For the same molecule, the GI50 [11] was > 10 µM (inactive), the GI50 [12] was > 10 µM (inactive) and the GI50 [13] was > 10 µM (inactive). For the same molecule, the GI50 [14] was > 10 µM (inactive), the GI50 [15] was > 10 µM (inactive) and the GI50 [16] was > 10 µM (inactive). The GI50 [17] was > 10 µM (inactive).

`COC(=O)C1(Cc2ccc3c(c2)CCC3)Cc2ccccc2C1` was tested, and the GI50 [1] was 50.6 µM (inactive), the GI50 [2] was 11.6 µM (inactive) and the GI50 [18] was 29.9 µM (inactive). The GI50 [3] was 41.9 µM (inactive), the GI50 [19] was 39.3 µM (inactive) and the GI50 [20] was 25.9 µM (inactive). For the same molecule, the GI50 [5] was 32.5 µM (inactive), the GI50 [6] was 74.5 µM (inactive) and the GI50 [7] was 55.7 µM (inactive). The GI50 [8] was 35.1 µM (inactive), the GI50 [9] was 44.1 µM (inactive) and the GI50 [10] was 39.4 µM (inactive). The GI50 [11] was 39.7 µM (inactive), the GI50 [12] was 37.8 µM (inactive) and the GI50 [13] was 43.6 µM (inactive). For the same molecule, the GI50 [14] was 40.7 µM (inactive), the GI50 [15] was 17.9 µM (inactive) and the GI50 [16] was 16.8 µM (inactive). For the same molecule, the GI50 [17] was 69.5 µM (inactive).

`COc1ccc(OC)c(CNc2ccc(O)c(C(=O)NCCc3ccc(F)cc3)c2)c1` was tested, and the GI50 [1] was 16.2 µM (inactive), the GI50 [2] was 3.74 µM (inactive) and the GI50 [3] was 24 µM (inactive). The GI50 [19] was 22.4 µM (inactive), the GI50 [20] was 8.15 µM (inactive) and the GI50 [5] was 20.7 µM (inactive). For the same molecule, the GI50 [6] was 3.3 µM (inactive), the GI50 [8] was 7 µM (inactive) and the GI50 [9] was 10.1 µM (inactive). For the same molecule, the GI50 [10] was 12.8 µM (inactive), the GI50 [11] was 10.4 µM (inactive) and the GI50 [12] was 23.8 µM (inactive). For the same molecule, the GI50 [13] was 4.08 µM (inactive), the GI50 [14] was 7.57 µM (inactive) and the GI50 [15] was 2.83 µM (inactive). For the same molecule, the GI50 [16] was 9.95 µM (inactive) and the GI50 [17] was 17.1 µM (inactive).

For `O=c1[nH]c2ccc(C(F)(F)F)cc2nc1-c1ccccc1`, the GI50 [1] was 52.4 µM (inactive), the GI50 [2] was > 100 µM (inactive) and the GI50 [3] was > 100 µM (inactive). For the same molecule, the GI50 [19] was > 100 µM (inactive), the GI50 [4] was > 100 µM (inactive) and the GI50 [5] was > 100 µM (inactive). The GI50 [6] was > 100 µM (inactive), the GI50 [7] was > 100 µM (inactive) and the GI50 [8] was > 100 µM (inactive). For the same molecule, the GI50 [9] was > 100 µM (inactive), the GI50 [10] was > 100 µM (inactive) and the GI50 [11] was > 100 µM (inactive). The GI50 [12] was > 100 µM (inactive), the GI50 [13] was > 100 µM (inactive) and the GI50 [14] was > 100 µM (inactive). For the same molecule, the GI50 [15] was > 100 µM (inactive) and the GI50 [17] was > 100 µM (inactive).

For `N=C(N)C1CN(CCCCCCCCCCN2CC(C(=N)N)C(O)=NC2=O)C(=O)N=C1O` (stereo unspecified), the GI50 [1] was > 10 µM (inactive), the GI50 [2] was > 10 µM (inactive) and the GI50 [18] was > 10 µM (inactive). For the same molecule, the GI50 [3] was > 10 µM (inactive), the GI50 [19] was > 10 µM (inactive) and the GI50 [4] was > 10 µM (inactive). The GI50 [20] was > 10 µM (inactive), the GI50 [5] was > 10 µM (inactive) and the GI50 [7] was > 10 µM (inactive). The GI50 [8] was > 10 µM (inactive), the GI50 [9] was > 10 µM (inactive) and the GI50 [11] was > 10 µM (inactive). For the same molecule, the GI50 [12] was > 10 µM (inactive), the GI50 [13] was > 10 µM (inactive) and the GI50 [14] was > 10 µM (inactive). The GI50 [15] was > 10 µM (inactive), the GI50 [16] was > 10 µM (inactive) and the GI50 [17] was > 10 µM (inactive).

For `O=C1/C(=C/c2ccc(Cl)cc2)CNC/C1=C\c1ccc(Cl)cc1`, the GI50 [1] was 2.04 µM (inactive), the GI50 [18] was 2.44 µM (inactive) and the GI50 [3] was 3.28 µM (inactive). The GI50 [19] was 4.79 µM (inactive), the GI50 [5] was 4.76 µM (inactive) and the GI50 [6] was 1.5 µM (inactive). For the same molecule, the GI50 [7] was 4.36 µM (inactive), the GI50 [8] was 2.88 µM (inactive) and the GI50 [9] was 2.91 µM (inactive). The GI50 [10] was 2.65 µM (inactive), the GI50 [11] was 3.71 µM (inactive) and the GI50 [12] was 1.28 µM (inactive). For the same molecule, the GI50 [13] was 2.43 µM (inactive), the GI50 [14] was 2.01 µM (inactive) and the GI50 [15] was 0.5 µM (active). The GI50 [17] was 1.18 µM (inactive).

Reference: ChEMBL document CHEMBL1201862, “PubChem BioAssay data set” (2004)
